This passage reports IC50 and melting point results from patent US7491722B2, “Pyridazin-3(2H)-one derivatives” (Laboratorios Almirall S.A., priority 2002, dated 2009).

As a reminder, the IC50 is the point on the concentration scale where inhibition reaches its midpoint. Read a low IC50 as greater potency in that assay. The melting point is the temperature of the solid-liquid transition.

Molecules are shown by their SMILES.

One data set concerns PDE4. Description: PDE4 Assay Procedure ([3H]-cAMP SPA). It counts as biochemical. On the procedure:
Compounds to be tested were resuspended in DMSO at a stock concentration of 1 mM. The compounds were tested at different concentrations varying from 10 μM to 10 pM to calculate an IC50. These dilutions were done in 96-well plates. In some cases, plates containing diluted compounds were frozen before being assayed. In these cases, the plates were thawed at room temperature and stirred for 15 minutes.
Ten microliters of the diluted compounds were poured into a “low binding” assay plate. Eighty microliters of reaction mixture containing 50 mM Tris pH 7.5, 8.3 mM MgCl2, 1.7 mM EGTA, and 15 nM [3H]-cAMP were added to each well. The reaction was initiated by adding ten microliters of a solution containing PDE4. The plate was then incubated under stirring for 1 hour at room temperature. After incubation the reaction was stopped with 50 microlitres of SPA beads, and the reaction was allowed to incubate for another 20 minutes at room temperature before measuring radioactivity using standard instrumentation.
The reaction mixture was prepared by adding 90 ml of H2O to 10 ml of 10× assay buffer (500 mM Tris pH 7.5, 8.3 mM MgCl2, 17 mM EGTA), and 40 microlitres 1 μCi/μL [3H]-cAMP. SPA beads solution was prepared by adding 500 mg to 28 ml H2O for a final concentration of 20 mg/ml beads and 18 mM zinc sulphate.
`CCn1nc(-c2ccccc2)c(C(C)=O)c(Nc2cccc3cccnc23)c1=O` [Example 67, 5-Acetyl-2-ethyl-6-phenyl(quinolin-8-ylamino)pyridazin-3(2H)-one] had an IC50 of 10 nM.

On to `CCn1nc(-c2cccs2)c(C(C)=O)c(Nc2cccc(Cl)c2)c1=O` [Example 52, 5-Acetyl-4-[(3-chlorophenyl)amino]-2-ethyl-6-thien-2-ylpyridazin-3(2H)-one], for which the IC50 stood at 5.2 nM.

`CCn1nc(-c2ccccc2)c(C(C)=O)c(Nc2cccc3cnccc23)c1=O` [Example 84, 5-Acetyl-2-ethyl-4-(isoquinolin-5-ylamino)-6-phenylpyridazin-3(2H)-one]: the IC50 was 2.6 nM.

For the compound `CC(=O)c1c(-c2cccc(F)c2)nn(CC2CC2)c(=O)c1Nc1cccnc1` [Example 92, 5-Acetyl-2-cyclopropylmethyl-6-(3-fluorophenyl)-4-(pyridin-3-ylamino)-pyridazin-3(2H)-one], the IC50 is 11 nM.

`CC(=O)c1c(-c2cccc(F)c2)nn(C(C)C)c(=O)c1Nc1cccnc1` [Example 91] yielded an IC50 of 9.4 nM.

For `CCn1nc(-c2ccc(F)cc2)c(C(C)=O)c(Nc2cccnc2)c1=O` [Example 93, 5-Acetyl-6-(4-fluorophenyl)-2-ethyl 4-(pyridin-3-ylamino)-pyridazin-3(2H)-one], the IC50 came to 8.3 nM. This IC50 and that of the compound before are within 1.5-fold of each other.

Consider `CCn1nc(-c2ccccc2)c(C(C)=O)c(Nc2cccnc2)c1=O` [Example 63, 5-Acetyl-2-ethyl-6-phenyl-4-(pyridin-3-ylamino)pyridazin-3(2H)-one], for which the IC50 is 24 nM.

As for `CCn1nc(-c2ccccc2)c(C(C)=O)c(Nc2cccc3ncccc23)c1=O` [Example 82, 5-Acetyl-2-ethyl-6-phenyl-4-(quinolin-5-ylamino)pyridazin-3(2H)-one], inhibition was half-maximal at 0.3 nM (IC50).

The compound `CCn1nc(-c2cccnc2)c(C(C)=O)c(Nc2cccc(F)c2)c1=O` [Example 1, 5-Acetyl-2-ethyl-4-[(3-fluorophenyl)amino]-6-pyridin-3-ylpyridazin-3(2H)-one] had an IC50 of 2.3 nM.

`CCn1nc(-c2ccccc2)c(C(C)=O)c(Nc2cccc3[nH]ccc23)c1=O` [Example 69, 5-Acetyl-2-ethyl-4-(1H-indol-4-ylamino)-6-phenylpyridazin-3(2H)-one] came in with an IC50 of 2 nM. The IC50 values of the last two compounds are within 1.5-fold of each other.

`CCn1nc(-c2ccncc2)c(C(C)=O)c(Nc2cccc(Cl)c2)c1=O` [Example 31, 5-Acetyl-4-[(3-chlorophenyl)amino]-2-ethyl-6-pyridin-4-ylpyridazin-3(2H)-one] displayed an IC50 of 4.5 nM.

As to `CCn1nc(-c2ccncc2)c(C(C)=O)c(Nc2cccc3ccccc23)c1=O` [Example 32, 5-Acetyl-2-ethyl-4-(1-naphthylamino)-6-pyridin-4-ylpyridazin-3(2H)-one], inhibition was half-maximal at 0.59 nM (IC50).

On to `CCn1nc(-c2cccnc2)c(C(C)=O)c(Nc2cccc3ccccc23)c1=O` [Example 4, 5-Acetyl-2-ethyl-4-(1-naphthylamino)-6-pyridin-3-ylpyridazin-3(2H)-one], for which the half-maximal inhibitory concentration (IC50) amounted to 6.8 nM.

For the compound `CCn1nc(-c2ccncc2)c(C(C)=O)c(Nc2ccccc2C)c1=O` [Example 33, 5-Acetyl-2-ethyl-4-[(2-methylphenyl)amino]-6-pyridin-4-ylpyridazin-3(2H)-one], the IC50 is 0.11 nM.

`CCn1nc(-c2ccncc2)c(C(C)=O)c(Nc2ccc(C(=O)O)cc2)c1=O` [Example 41, 4-[(5-acetyl-2-ethyl-3-oxo-6-pyridin-4-yl-2,3-dihydropyridazin-4-yl)amino]benzoic acid] had an IC50 of 16 nM.

Test system in the next data set: not given
Assay: not given
The compound `CCn1nc(-c2cccc(C)c2)c(C(C)=O)c(Nc2cccc3ncccc23)c1=O` [Example 195, 5-Acetyl-2-ethyl-6-(3-methylphenyl)-4-(quinolin-5-ylamino)pyridazin-3(2H)-one] displayed a melting point of 245 to 246.1 °C.
